Where a name gives a salt, the structure may show the parent alone.

The experiment deals with STING activation (IFNβ release) in iBMDMs. Put plainly: IFNβ release ELISA after STING ligand (or LPS) stimulation, iBMDMs. In kind it is cell-based, mouse. To be noted: iBMDMs; 3′3′-cGAMP 10 μg/ml, 16 hours; compound 10 μM. An excerpt: Commercially available enzyme-linked immunosorbent assay (ELISA) kits were used to measure the concentrations of mouse IFNβ (Thermo Fisher Scientific) or human IFNβ (Thermo Fisher Scientific) in culture medium according to the manufacturer's instructions. […]
For `Cc1c(Cl)cccc1Nc1ccccc1C(=O)O` [Tolfenamic Acid], the “fold increase in IFN-β release” value is on record as 2.19 fold.
Still for that read-out and setting: the figure for `Cn1c(=O)cc(N2CCC[C@@H](N)C2)n(Cc2cc(F)ccc2C#N)c1=O` [Trelagliptin] is 1.80 fold; for `COc1cc2c(cc1Cc1cccc(Cl)c1F)c(=O)c(C(=O)O)cn2[C@H](CO)C(C)C` [Elvitegravir (GS-9137, JTK-303), Elvitegravir] it is 2.56 fold.
Same read-out and setting: the figure for `Cc1ccc(S(=O)(=O)c2ccc([N+](=O)[O-])o2)cc1` [NSC697923] is 0.51 fold; for `S=C=Nc1cccc(NC(=S)NCCCCNC(=S)Nc2cccc(N=C=S)c2)c1` [MRS 2578] it is 1.31 fold; for `CC[C@@H]1C(=O)N(C)c2cnc(Nc3ccc(C(=O)NC4CCN(C)CC4)cc3OC)nc2N1C1CCCC1` [BI 2536] it is 0.45 fold.
On the same count and under the same terms, the figure for `COc1ccc(COc2ccc(Cc3cnc(N)nc3N)cc2OC)cc1` [GW2580] is 1.21 fold.
`NC1(Cc2ccc(Cl)cc2)CCN(c2ncnc3[nH]ccc23)CC1` [CCT128930]: the “fold increase in IFN-β release” value turned out to be 1.46 fold.
The same measure, in the same setting: then `Cc1cc(C(N)=O)ccc1-n1c(CCC(=O)O)ccc1-c1ccc(-n2ccnc2)cc1` [N6022], with 0.75 fold.
Consider `CCOC(=O)C1=C(C)NC(C)=C(C(=O)OC)C1c1cccc(Cl)c1Cl` (stereo not shown) [Felodipine], for which the “fold increase in IFN-β release” value stood at 0.69 fold.
Same read-out and setting: the figure for `CCNC(=O)[C@H]1O[C@@H](n2cnc3c(N)nc(NCCc4ccc(CCC(=O)O)cc4)nc32)[C@H](O)[C@@H]1O` [CGS 21680 HCl] is 2.00 fold; for `COc1ccc(-n2nc(C(N)=O)c3c2C(=O)N(c2ccc(N4CCCCC4=O)cc2)CC3)cc1` [Apixaban] it is 2.83 fold; for `C[C@](O)(COc1ccc(C#N)cc1)C(=O)Nc1ccc(C#N)c(C(F)(F)F)c1` [MK-2866 (GTx-024)] it is 1.47 fold.
Turning to `CC(=O)OCOC(=O)CN(CC(=O)OCOC(C)=O)c1ccccc1OCCOc1ccccc1N(CC(=O)OCOC(C)=O)CC(=O)OCOC(C)=O` [BAPTA-AM], the “fold increase in IFN-β release” value turned out to be 0.52 fold.
The same measure, in the same setting: then `FC(F)(F)c1ccc(/C=C/c2nc(COc3ccc(CCCCn4ccnn4)cc3)co2)cc1` [Mubritinib (TAK 165), Mubritinib], with 0.56 fold; and `CC(C)c1onc(-c2c(Cl)cccc2Cl)c1COc1ccc(/C=C/c2cccc(C(=O)O)c2)c(Cl)c1` [GW4064], with 1.26 fold; and `CC(C)c1noc(N2CCC(COc3ccc(-c4ccc(S(C)(=O)=O)cc4)nc3)CC2)n1` [GSK1292263], with 2.58 fold.
As to `CCOC(=O)c1cncn1[C@H](C)c1ccccc1` [Etomidate], the “fold increase in IFN-β release” value is given as 0.86 fold.
As for `Cc1nc(C(=O)NCC(=O)O)c(O)c2ccc(Oc3ccccc3)cc12` [FG-4592], the “fold increase in IFN-β release” value is listed as 0.73 fold.
Same read-out and setting: then `O=c1ncccn1[C@@H]1O[C@H](CO)[C@@H](O)[C@H]1O` [Zebularine], with 1.50 fold; and `COc1cc2c(N3CCN(C(=O)Nc4ccc(OC(C)C)cc4)CC3)ncnc2cc1OCCCN1CCCCC1` [Tandutinib (MLN518), Tandutinib], with 0.65 fold; and `C[C@]12C=CC(=O)N[C@@H]1CC[C@@H]1[C@@H]2CC[C@]2(C)[C@@H](C(=O)Nc3cc(C(F)(F)F)ccc3C(F)(F)F)CC[C@@H]12` [Dutasteride], with 0.51 fold.
The same measure, in the same setting: the figure for `CNC(=O)c1ccccc1Nc1nc(Nc2ccc(N3CCOCC3)cc2OC)ncc1Cl` [TAE226 (NVP-TAE226)] is 1.50 fold; for `N#C[C@@H]1CCCN1C(=O)CNC12CC3CC(CC(O)(C3)C1)C2` [Vildagliptin (LAF-237), Vildagliptin] it is 1.04 fold.
For the compound `Cc1ccc(C(=O)N(CCCN)[C@@H](c2nc3cc(Cl)ccc3c(=O)n2Cc2ccccc2)C(C)C)cc1` [Ispinesib (SB-715992), Ispinesib], the “fold increase in IFN-β release” value was 2.12 fold.
Same read-out and setting: then `CCCCN1CCCCC1C(=O)Nc1c(C)cccc1C` (stereo not shown) [Bupivacaine HCl], with 0.42 fold; and `N[C@@H]1C[C@H]1c1ccccc1` (racemic) [Tranylcypromine (2-PCPA) HCl, Tranylcypromine], with 1.17 fold; and `O=S(=O)(CC1CS1)c1ccc(Oc2ccccc2)cc1` (stereo not shown) [SB-3CT], with 0.49 fold.
Same read-out and setting: then `COc1cc(F)c(F)c(Nc2ccc(I)cc2F)c1NS(=O)(=O)C1(C[C@H](O)CO)CC1` [Refametinib (RDEA119, Bay 86-9766), Refametinib], with 0.64 fold; and `O=C(O[C@H]1C[C@H]2CC[C@@H](C1)[N+]21CCCC1)C(O)(c1ccccc1)c1ccccc1` [Trospium chloride], with 0.76 fold.
Still for that read-out and setting: then `CCC(CC)CC1(C(=O)Nc2ccccc2SC(=O)C(C)C)CCCCC1` [Dalcetrapib (JTT-705, RO4607381), Dalcetrapib], with 0.13 fold; and `O=C(O)Cn1nnc(-c2cc(N3CCC(Oc4cc(F)ccc4Br)CC3)no2)n1` [MK-8245], with 0.42 fold; and `Cc1cccc(-c2nn3c(c2-c2ccnc4ccc(C(N)=O)cc24)CCC3)n1` [LY2157299], with 2.50 fold.
With `CN1CCCCC1Cn1cc(C(=O)c2cc([N+](=O)[O-])ccc2I)c2ccccc21` (stereo not shown) [AM1241], the “3′3′-cGAMP-induced IFNβ release” value is given as “promoted” and the “fold increase in IFN-β release” value is on record as 8.07 fold.
Consider `O=C(O)c1cc(I)ccc1NC(=O)[C@H](Cc1ccccc1)NCc1ccccc1` [CW069], for which the “fold increase in IFN-β release” value is 4.03 fold.
In the case of `CCN(c1cc(-c2ccc(CN3CCOCC3)cc2)cc(C(=O)NCc2c(C)cc(C)[nH]c2=O)c1C)C1CCOCC1` [EPZ-6438], the “fold increase in IFN-β release” value amounted to 1.03 fold.
Same read-out and setting: then `CC(=O)c1c(C)c2cnc(Nc3ccc(N4CCNCC4)cn3)nc2n(C2CCCC2)c1=O` [Palbociclib (PD-0332991) HCl, Palbociclib], with 0.94 fold; and `O=C(O)C(Cc1ccccc1[N+](=O)[O-])=NNc1nc(-c2ccc(Cl)c(Cl)c2)cs1` (mixture of isomers) [4EGI-1], with 4.14 fold.
The same measure, in the same setting: the figure for `C[C@]1(c2nc3c(C(N)=O)cccc3[nH]2)CCCN1` [Veliparib (ABT-888), Veliparib] is 0.66 fold; for `COCCOc1ccc2c(c1)ncn2-c1ccc2cccc(N3CCC(N)CC3)c2n1` [CP-673451] it is 0.27 fold; for `CCOC(=O)N1c2ccc(C(F)(F)F)cc2[C@@H](N(Cc2cc(C(F)(F)F)cc(C(F)(F)F)c2)C(=O)OC)C[C@H]1CC` [Torcetrapib] it is 3.84 fold.
Same read-out and setting: the figure for `c1ccc(NCc2ccc(CNc3ccccn3)cc2)nc1` [WZ811] is 1.67 fold; for `O=C(Nc1ccncc1)c1cc([N+](=O)[O-])ccc1Cl` [T0070907] it is 2.09 fold; for `CC(C)(C)NC(=O)[C@H]1CC[C@H]2[C@@H]3CC[C@H]4NC(=O)C=C[C@]4(C)[C@H]3CC[C@]12C` [Finasteride] it is 0.85 fold.
As for `CC(C)c1c(C(=O)Nc2ccccc2)c(-c2ccccc2)c(-c2ccc(F)cc2)n1CC[C@@H](O)C[C@@H](O)CC(=O)[O-].CC(C)c1c(C(=O)Nc2ccccc2)c(-c2ccccc2)c(-c2ccc(F)cc2)n1CC[C@@H](O)C[C@@H](O)CC(=O)[O-].[Ca+2]` [Atorvastatin Calcium], the “fold increase in IFN-β release” value is 1.45 fold.
`CC[C@H](NC(=O)[C@H](C)NC)C(=O)N1C[C@@H](O)C[C@H]1Cc1c(-c2[nH]c3cc(F)ccc3c2C[C@@H]2C[C@H](O)CN2C(=O)[C@H](CC)NC(=O)[C@H](C)NC)[nH]c2cc(F)ccc12` [Birinapant]: the “fold increase in IFN-β release” value was 1.15 fold.
The same measure, in the same setting: then `COc1ccc(C(=O)Nc2sc3c(c2C(N)=O)CCCC3)cc1OC` [TCS 359], with 0.45 fold; and `Cl.NCc1c[nH]c(=S)n1[C@@H]1CCc2c(F)cc(F)cc2C1` [(R)-Nepicastat HCl], with 2.13 fold; and `COc1cc(Br)c(Nc2nc(-c3c(C)nc4ncccn34)cs2)c(Br)c1` [PTC-209], with 2.11 fold.
Still for that read-out and setting: then `CCOC(=O)CCNc1cc(N2CCc3ccccc3CC2)nc(-c2ccccn2)n1.Cl` [GSK J4 HCl], with 0.40 fold; and `Cc1cc(Nc2ccc(NC(=O)c3ccc(Nc4ccnc5ccccc45)cc3)cc2)nc(N)n1` [SGI-1027], with 0.37 fold.
In the case of `O=C(NCc1ccccc1)c1csc(Nc2ccncn2)n1` [Thiazovivin], the “3′3′-cGAMP-induced IFNβ release” value is “promoted” and the “fold increase in IFN-β release” value was 8.11 fold.
As to `CN(C)C(=O)Nc1cccc(-c2ccc(N(C)C)cc2)c1` [Atglistatin], the “fold increase in IFN-β release” value came to 0.91 fold.
Same read-out and setting: then `Cc1c(-c2ccnn2C)cc(C(=O)NCc2ccc(S(C)(=O)=O)cn2)c(=O)n1-c1cccc(C(F)(F)F)c1` [Alvelestat (AZD9668), Alvelestat], with 0.27 fold; and `O=C1NC(=O)/C(=C/c2cccc(C(F)(F)F)c2)S1` [SMI-4a], with 0.84 fold.
As to `O=C1NC(=O)/C(=C/c2ccc(-c3ccc(F)cc3O)o2)S1` [AS-252424], the “3′3′-cGAMP-induced IFNβ release” value is recorded as “promoted” and the “fold increase in IFN-β release” value is 6.84 fold.
As for `O=C(c1cncc(Br)c1)N1CCC(N2CCCC2)CC1` [UNC669], the “fold increase in IFN-β release” value stood at 1.99 fold.
As for `CCN(CC)CC(=O)Nc1c(C)cccc1C` [Lidocaine], the “3′3′-cGAMP-induced IFNβ release” value was “promoted” and the “fold increase in IFN-β release” value is listed as 9.58 fold.
On to VU 0364439, for which the “fold increase in IFN-β release” value is given as 1.60 fold.
On the same count and under the same terms, then `CN1CCN(c2nc(C3=C(c4c[nH]c5ccccc45)C(=O)NC3=O)c3ccccc3n2)CC1` [Sotrastaurin], with 0.59 fold.

Values taken from patent US11179412B2, “Methods of treating conditions involving elevated inflammatory response” (University of Pittsburgh—Of the Commonwealth System of …, priority 2017, dated 2021).
